In patent publication US11286231B2, “Hydrogen-bonding compounds, compositions comprising the same, and methods of preparing and using the same” (Wake Forest University Health Sciences, priority 2016, dated 2022):

Experiment: Rheometer tensile strength T′ (adhesive force) test of HyStem hydrogels
Format: physicochemical
Conditions: for increase in T′ when concentration is doubled: 0.25% to 0.50% to 1.0% w/v; for fold increase in tensile strength T′: 1.0% w/v solution; for tensile strength T′: n=3
Protocol: To a 2 mL centrifuge tube, 200 μL of Heprasil® solution (1% w/v solution, thiolated HA component of HyStem kit), 200 μL of Gelin-S® solution (1% w/v, thiolated gelatin component of HyStem kit), 50 μL of Extralink® solution (2% w/v, polyethylene glycol diacrylate component of HyStem kit), and 50 μL of a modular catecholamine (C1.1) or amide […] solutions (0.25%-1.5% w/v, see Rheology section for specifics) were added and mixed by softly pipetting the solution up and down carefully to avoid creating bubbles. For control experiments the modular catecholamide or amine solutions were replaced with an equivalent volume of sterile deionized water. For rheology or cell culture studies, the reaction mixture was placed into wells of an appropriate size and exposed to UV radiation (˜222 nm) for 1-5 seconds.
A Discovery HR-2 Rheometer (TA Instruments) with an 8 mm geometry was used to collect the tensile strength, T′, data. The test was designed to quantify the axial force (Pa) exerted by the hydrogel on the geometry as measured by the rheometer as the geometry is slowly raised over 2000 μm at 25° C. The absolute value of the axial force (Pa) was then taken to be the adhesive force or tensile strength T′ (Pa) assigned to the hydrogel. To ensure standard conditions across all experiments the geometry was lowered into the gels until a calibration force of 0.4N was observed. Following, a rheometer tensile strength test was applied to the hydrogels at each of the respective conditions containing varying concentrations (0% w/v, 0.25% w/v, 0.50% w/v, and 1.0% w/v) of modular amine compounds, C1.0-C1.2. This experiment was repeated in triplicate for each condition.
While not wishing to be bound to any particular theory, our assumption here is that increased intermolecular interactions are occurring with the C1.2. In addition to the ortho-dihydroxyl groups offered by the catechol moiety, the amide moiety offers an extra hydrogen […] species, the carbonyl oxygen (C═O), for intermolecular interactions between the adjacent catecholamides. The catecholamides located on different HA chains or gelatin increase the ability for the hydrogel matrix to both interact with itself and other substrates through hydrogen bonding. Whereas the amine (C1.1) has a secondary carbon in the same position as the carbonyl functional group on the amide (C1.2), we postulate that the lack of this hydrogen bonding position yields a lower increase in G′ observed in hydrogel when comparing the two compounds. Again, to ensure standard conditions across all experiments, the geometry was lowered into the gels until a calibration force of 0.4N was detected. Following, a tensile strength test (25 μm/s, […], 25° C.) was applied to hydrogels containing varying concentrations (0%, 0.25%, […], and 1.0% w/v) of modular amine solutions, C1.1/C1.2. The reported values are the average T′ (Pa) values for n=3 runs at every condition and uncertainties were calculated from standard deviations between n=3 averaged T′ (Pa) for each condition. In FIG. 4, we report the following T′ (Pa) values for hydrogels containing C1.1: (1.10×10^2+/−2.91×10^1) Pa for Hystem® control, (2.90×10^2+/−1.23×10^2) Pa for Hystem®+0.25% w/v catecholamine, (4.25×10^2+/−1.01×10^2) Pa for Hystem® +0.50% w/v catecholamine, and (8.48×10^2+/−1.42×10^2) Pa for Hystem®+1.0% w/v catecholamine. […] In addition, we collected the following T′ values (Pa) for hydrogels containing C1.2: (1.09×10^2+3.64×10^1) Pa for Hystem® control, (3.33×10^2+/−6.16×10^1) Pa for Hystem®+0.25% w/v catecholamide, (4.12×10^2+/−6.39×10^1) Pa for Hystem®+0.50% w/v catecholamide, and (1.16×10^3+/−6.34×10^1) Pa for Hystem®+1.0% w/v catecholamide. […] Conclusively, we can say the increase in allotted tensile strength T′ (Pa) of the hydrogels when cross comparing compounds, C1.1 and C1.2, is due to the amide moiety having higher hydrogen bonding capacities.

[1] = Hystem + 0.25% w/v compound solution
[2] = Hystem + 0.50% w/v compound solution
[3] = Hystem + 1.0% w/v compound solution

Row | Compound | increase in T′ when concentration is doubled | fold increase in tensile strength T′ | tensile strength T′ [1] | increase in T′, 0.50% w/v to 1.0% w/v (Hystem + 0.50% w/v compared to Hystem + 1.0% w/v) | tensile strength T′ [2] | tensile strength T′ [3]
1 | C#CCNCc1ccc(O)c(O)c1 [Compound C1.1] | ~100% | approximately 4 fold | 2.90×10^2+/−1.23×10^2 Pa | 4.13×10^2+/−1.56×10^1 Pa | 4.25×10^2+/−1.01×10^2 Pa | 8.48×10^2+/−1.42×10^2 Pa
2 | C#CCNC(=O)Cc1ccc(O)c(O)c1 [Compound C1.2] | 200% | ~6 fold | 3.33×10^2+/−6.16×10^1 Pa | – | 4.12×10^2+/−6.39×10^1 Pa | 1.16×10^3+/−6.34×10^1 Pa
